Laboratory results published in patent US7897389B2, “Direct differentiation method for making cardiomyocytes from human embryonic stem cells” (Geron Corporation, priority 2008, dated 2011).

Columns and labels:
[1] = tested on: Embryoid bodies from the H1 or H9 line
Experimental: Embryoid bodies from the H1 or H9 line were treated at differentiation day 1-4, 4-6 or 6-8 with 5-aza-deoxy-cytidine, a cytosine analog that affects DNA methylation. Cells were harvested at day 15, and analyzed for cardiac MHC by real-time RT-PCR.
Other reagents examined for an ability to induce cardiomyocyte differentiation included dimethyl sulfoxide (DMSO) and all-trans retinoic acid (RA).

[2] = tested on: hES-derived cardiomyocytes; assay: Chronotropic effects of cardioactive drugs on beating hES-derived cardiomyocytes; assay type: cell-based, human; settings: for chronotropic effect on beating rate: FIG. 2 Panels B-E
Experimental: The function of hES-derived cardiomyocytes was tested by determining whether the cardiomyocytes respond appropriately to the chronotropic effects of cardioactive drugs.
When cells were treated with 10^−5 M diltiazem, 100% of the beating areas stopped contraction. […] Thus, the hES cell derived cells respond to cardioactive drugs in a manner appropriate for cells of the cardiomyocyte lineage.

Nc1ncn([C@H]2C[C@H](O)[C@@H](CO)O2)c(=O)n1 [5-aza-deoxy-cytidine]
proportion of beating areas in the culture ([1]; 1 to 10 μM at day 6-8): increased
expression of cardiac α-MHC ([1]; 1 to 10 μM at day 6-8, harvested day 15, real-time RT-PCR): significantly increased

CNC[C@H](O)c1cccc(O)c1 [phenylephrine]
chronotropic effect on beating rate [2]: positive chronotropic effects

CC(C)NCC(O)c1ccc(O)c(O)c1 (stereo not shown) [isoprenaline]
chronotropic effect on beating rate [2]: positive chronotropic effects

CC1=C(/C=C/C(C)=C/C=C/C(C)=C/C(=O)O)C(C)(C)CCC1 [RA, all-trans retinoic acid]
toxicity to the cells [1]: toxic
beating cells compared with untreated cultures ([1]; 10^−9 to 10^−5 M, days 4-8, 8-15, or 4-15): no increase in beating cells

COc1ccc([C@@H]2Sc3ccccc3N(CCN(C)C)C(=O)[C@@H]2OC(C)=O)cc1 [diltiazem]
beating rate ([2]; FIG. 2 Panel A, concentration-dependent): inhibited

C[S+](C)[O-] [DMSO, dimethyl sulfoxide]
beating areas vs non-treated cultures ([1]; 0.5% from days 0-4): fewer beating areas
beating cells ([1]; 0.8% or 1%): absent
α-MHC expression compared with untreated cultures ([1]; DMSO treatment): significant reduction
